Here are results for 8 compounds from EP0777471B1, “INHIBITION OF LEUKOTRIENE BIOSYNTHESIS WITH UREA DERIVATIVES” (MINNESOTA MINING AND MANUFACTURING COMPANY, priority 1994, dated 1996).

Each structure is given as a SMILES string. Several values for one entry are separate records, joined by “and”; a condition that tells them apart may be missing. Equal entries are not always repeated. Where two headings read alike, the source gives them in different places. Bounds are passed on as bounds.

A word on the inhibition: it is the drop in the measured response relative to a control, in per cent. What is called IC50 is the midpoint of a concentration-inhibition curve.

Assay [1] relates to production of Leukotriene B4 (LTB4). Put plainly: Dog ex vivo Leukotriene B4 inhibition (oral dosing, blood challenged with calcium ionophore). The conditions noted are these: each entry one dog, negative = stimulation of LTB4 production; for % Inhibition 6 hour: 6 hour post dose; for inhibition at 5 mg/kg: Canis lupus familiaris, po. The assay is classed as in vivo, beagle dogs. The procedure:
The test method described below measures the ability of a compound when administered orally to dogs to inhibit the production of Leukotriene B4 (LTB4) in their blood which is drawn and challenged at selected time points.
The test is conducted in beagle dogs (male and female; about 10 Kg). Prior to starting, the neck area of the beagle is shaved to allow easy access to the jugular vein. A 3-4 mL sample of blood is drawn from the jugular vein into a heparinized vacutainer. The dog is then dosed using a tube long enough to reach its stomach. The compound is dissolved in PEG 400 at a concentration such that the appropriate dose can be administered in approximately 5 mL. Immediately after the compound is given, a flush using 5 mL of vehicle is given to rinse the dosing tube. At selected time points following the dose, a 3-4 mL sample of blood is drawn.
The blood samples that have been drawn are challenged as soon as possible. A 0.5 mL portion of blood is aliquoted into 3 tubes (1 mL microtiter tubes). A 1 µL portion of 25 mM calcium ionophore in dimethyl sulfoxide is added to 2 of the tubes. A 1 µL portion of dimethyl sulfoxide is added to the third tube. The tubes are lightly mixed then placed in a 37°C water bath for 30 minutes. The tubes are centrifuged at 11,000 rpm for 3 minutes and the plasma supernatant is transferred to clean tubes. A 50 µL portion of this plasma is added to a I mL microtiter tube containing 200 µL of methanol. The tubes are placed in the freezer at -20°C for at least 1 hour then centrifuged at 2000 rpm for 10 minutes. A 10 µL portion of the methanol supematant is dried under vacuum at ambient temperature and then reconstituted in LTB4 buffer. The amount of LTB4 in the sample is determined by radioimmunoassay performed according to the manufacturer's (Advanced Magnetics; Cambridge, MA) instructions. Percent inhibition values are obtained by comparing the level of LTB4 in the post-dose sample to the level in the pre-dose sample according to the equation below. % Inhibition =((LTB4 predose) - (LTB4 postdose))/((LTB4 predose))X 100 [formula]
A number of the compounds that are useful in the practice of the method of the invention were tested. The results are shown in Table 15 below where each entry represents the results from one dog. A negative number indicates stimulation of LTB4 production. All compounds were tested at a dose of 5 mg/Kg.

The subject of assay [2] is production of Leukotriene B4. Put plainly: Rat ex vivo Leukotriene B4 inhibition (oral dosing, blood challenged with A23187). The settings on record: two hours post dose. The format is in vivo, Rats. The gist of the method:
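Male CD rats (250 g, non-fasted) dosed orally with compound in PEG 400, 5 rats/group; blood drawn by cardiac puncture before and 2 h after dosing. Heparinized blood challenged with A23187 calcium ionophore, 30 min at 37°C; plasma LTB4 measured by radioimmunoassay. % inhibition = post-dose vs pre-dose LTB4 level.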

A further assay has as its target T1, 5-lipoxygenase (Homo sapiens, UniProt P09917).
T1 construct: Whole human blood is collected by venipuncture into EDTA; endogenous in cells; host or cells: leukocytes isolated from whole human blood (dextran sedimentation, hypotonic lysis)
T1 sequence (P09917 1-674): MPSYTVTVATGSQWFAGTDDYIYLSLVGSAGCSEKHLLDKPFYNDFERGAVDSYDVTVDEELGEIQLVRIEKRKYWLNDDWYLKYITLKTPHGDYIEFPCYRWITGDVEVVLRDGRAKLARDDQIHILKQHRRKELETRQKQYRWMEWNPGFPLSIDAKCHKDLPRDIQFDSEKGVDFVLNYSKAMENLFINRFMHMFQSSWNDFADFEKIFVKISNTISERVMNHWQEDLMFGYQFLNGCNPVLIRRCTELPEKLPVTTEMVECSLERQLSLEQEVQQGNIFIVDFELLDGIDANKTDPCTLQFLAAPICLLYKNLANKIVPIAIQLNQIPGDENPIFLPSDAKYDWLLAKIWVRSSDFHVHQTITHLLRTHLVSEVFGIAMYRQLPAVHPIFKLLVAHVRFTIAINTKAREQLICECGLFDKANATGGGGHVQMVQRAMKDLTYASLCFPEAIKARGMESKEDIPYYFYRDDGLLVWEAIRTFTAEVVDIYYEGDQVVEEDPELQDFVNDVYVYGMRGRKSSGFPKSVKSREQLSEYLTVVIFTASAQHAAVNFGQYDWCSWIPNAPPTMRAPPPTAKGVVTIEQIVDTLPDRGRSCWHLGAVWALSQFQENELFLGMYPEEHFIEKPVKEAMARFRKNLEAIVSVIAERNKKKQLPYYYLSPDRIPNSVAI
As to the kind of experiment: 5-Lipoxygenase inhibition in human leukocytes (A23187-stimulated, LTC4 radioimmunoassay). The conditions noted are these: human leukocytes, A23187 Calcium Ionophore, LTC4 formed; read-out: IC50. The format is cell-based. On the procedure: The test method described below measures the ability of compounds to inhibit 5-lipoxygenase activity in human leukocytes.
Whole human blood is collected by venipuncture into EDTA (1.4 mL of 0.25M per 60 mL of whole blood). The red blood cells are sedimented with a 6% dextran/0.9% sodium chloride solution at a ratio of 25 mL whole blood to 15 mL dextran solution. The blood/dextran combination is mixed by inversion and the red blood cells are allowed to settle out for 45 minutes at ambient temperature. The plasma/dextran supernatant is removed then centrifuged at ambient temperature at 3000 rpm for 10 minutes. The plasma/dextran supernatant is removed and the cells are resuspended in 10 mL of the plasma/dextran solution. […] The pellet is then resuspended into Tris buffer containing 1 mM calcium chloride to provide approximately 1.0 X 10^7 cells/mL.
Compounds are dissolved in dimethyl sulfoxide. […] Each concentration is tested in duplicate.
A 15 µL portion of Tris buffer containing 1 mM calcium chloride is added to each well of a 96 well microtiter plate. A 1 µL portion of drug solution or vehicle (dimethyl sulfoxide) is added to each well followed by the addition of an 75 µL portion of the cell suspension. The plates are gently mixed then allowed to stand at ambient temperature for 10 minutes. A 10 µL portion of 30 µM A23187 Calcium Ionophore (prepared by dissolving the ionophore in DMSO and then diluting 1:80 into the Tris buffer) is added to each well except the wells that contain the blanks (The blank wells measure the level of LTC4 production in the absence of A23187.). The plates are gently mixed then incubated at 37°C for 10 minutes.
Following incubation the plates are centrifuged at 2000 rpm for 1.5 minutes and the supernatant is removed as quickly as possible to stop the reaction. The supernatants are frozen at -20°C until they are assayed.
The supernatants are assayed for the presence of Leukotriene C4 by radioimmunoassay which is performed according to the manufacturer's (Advanced Magnetics; Cambridge, MA) instructions.

In assay [3] the test system is production of Leukotriene C4 in mouse peritoneal macrophages. Put plainly: In vitro mouse peritoneal macrophage Leukotriene C4 inhibition (zymosan-stimulated, LTC4 radioimmunoassay). The assay is classed as cell-based. The conditions noted are these: Zymosan 50 µg/mL. On the procedure:
The test method described below measures the ability of compounds to inhibit the production of Leukotriene C4 in mouse peritoneal macrophages.
Mice (female, CD-1, weighing 25 g) are euthanized by exposure to carbon dioxide. The peritoneal cavity is exposed by peeling back the abdominal skin. A 5 mL portion of media (M199 containing 1% fetal bovine serum, 100 units/mL of penicillin, 100 µg/mL of streptomycin, 20 units/mL of heparin and no glutamine) is injected into the exposed peritoneal cavity of each mouse. The lavage fluid is removed and pooled to yield approximately1 X 10^6 macrophages/mL. A 2 mL portion of lavage fluid is added to each well of a 24 well sterile multidish and the macrophages are allowed to adhere to the plate for 2 hours at 37°C in a 5% carbon dioxide atmosphere. The media is removed and each well is washed with 2 mL of phosphate buffered saline (PBS). A 1 mL portion of media, without heparin, but containing 5 µCi/mL of 3H-myoinositol is added to each well and the plates are incubated overnight at 37°C in a 5% carbon dioxide atmosphere. The media is removed and the cells are washed twice with 2 mL portions of PBS. A 1 mL portion of Puck's saline formulation A containing 1 mM calcium chloride, 1 mM magnesium chloride and 10 mM lithium chloride is added to each well. (The Puck's formulation is made first as a 10X solution which contains 4 g of potassium chloride, 80 g of sodium chloride and 10 g of glucose per liter. The Puck's saline formulation A is made using 10 mL of the 10X Puck's formulation, 0.47 mL of 7.5% sodium bicarbonate and 2 mL of 1M N-2-hydroxyethylpiperazine-N'-2-ethanesulfonic acid per 100 mL.)
Compounds are dissolved in dimethyl sulfoxide. Compounds are tested at concentrations of 10, 1 and 0.1 µM. Each concentration is tested in duplicate.
A 1 µL portion of compound solution or vehicle (DMSO) is added to each well and the plates are incubated for 15 minutes at 37°C in a 5% carbon dioxide atmosphere. Zymosan is then added to provide a final concentration of 50 µg/mL in each well and the plate is incubated for 1 to 2 hours at 37°C in a 5% carbon dioxide atmosphere.
Following incubation 200 µL portions of media are transferred to 12 X 75 mm tubes. The tubes are either assayed immediately or stored at -20°C until they can be assayed.
The media is assayed for the presence of Leukotriene C4 by radioimmunoassay which is performed according to the manufacturer's (Advanced Magnetics; Cambridge, MA) instructions.

[4] abbreviates: 1 h, 1 hour post dose, read-out: % Inhibition 1 hour.
Setting [5] is: 2 h, 2 hour post dose, read-out: % Inhibition 2 hour.

Consider `CSc1cccc(NC(=O)N(C)O)c1` [Compound 3, 1-hydroxy-1-methyl-3-[3-(methylthio)phenyl]urea], for which, in assay [1] (5 mg/Kg, 2 hour post dose), the “% Inhibition 2 hour” value amounted to 99%. For the same compound, the “% Inhibition 4 hour” value in assay [1] (5 mg/Kg, 4 hour post dose) stood at 95%. Moreover, the “% Inhibition 6 hour” value in assay [1] (5 mg/Kg) is 51% and 84%. Besides, the inhibition at 5 mg/kg in assay [1] (setting [4]) was determined as 100%; in assay [1] (setting [5]) it was 100%; in assay [1] (4 h, 4 hour post dose, read-out: % Inhibition 4 hour) it was 83%. In addition, the “%I” value in assay [2] (5 mg/Kg) came to 39%. Moreover, on 5-lipoxygenase, the IC50 came to 0.082 µM.

`CN(O)C(=O)Nc1ccc(F)cc1` [Compound 11, 3-(4-fluorophenyl)-1-hydroxy-1-methylurea]: in assay [1] (5 mg/Kg, 4 hour post dose), the “% Inhibition 4 hour” value is 77% and 41%. In addition, the “% Inhibition 6 hour” value in assay [1] (5 mg/Kg) was -17% and 30%. The inhibition at 5 mg/kg in assay [1] (setting [4]) and in assay [1] (setting [5]) was 100% throughout. The “%I” value is 26% in assay [2] (20 mg/Kg) and 20% in assay [2] (50 mg/Kg). On 5-lipoxygenase, the IC50 was 0.049 µM.

In the case of `COc1cccc(NC(=O)N(O)C(C)C)c1` [Compound 22, 1-hydroxy-3-(3-methoxyphenyl)-1-(1-methylethyl)urea], in assay [1] (5 mg/Kg, 2 hour post dose), the “% Inhibition 2 hour” value was 78% and -140%. In addition, the inhibition at 5 mg/kg in assay [1] (setting [4]) stood at 100%. Further, the IC50 in assay [3] came out at 0.3 µM; on 5-lipoxygenase it was 0.74 µM.

As to `Cc1cccc(C)c1NC(=O)N(O)C(C)C` [Compound 26, 3-(2,6-dimethylphenyl)-1-hydroxy-1-(1-methylethyl)urea], the IC50 is greater than 1 µM in assay [3] and greater than 10 µM on 5-lipoxygenase.

Regarding `CSc1ccc(NC(=O)N(O)C2CCCCC2)cc1` [Compound 31, 1-Cyclohexyl-1-hydroxy-3-[4-(methylthio)phenyl]urea], the “%I” value in assay [2] (25 mg/Kg) was found to be 40%. Moreover, the figures for the IC50 (in assay [3]; on 5-lipoxygenase) were 0.2 µM and 0.006 µM, respectively.

`CSc1cccc(NC(=O)NO)c1` [Compound 34, 1-hydroxy-3-[3-(methylthio)phenyl]urea]: the “%I” value in assay [2] (25 mg/Kg) is reported as -2.9%. For the same compound, the results for the IC50 (in assay [3]; at 5-lipoxygenase) were greater than 10 µM and 0.46 µM, respectively.

Regarding `CCN(O)C(=O)Nc1ccccc1` [Compound 43, 1-ethyl-1-hydroxy-3-phenylurea], the “%I” value in assay [2] (20 mg/Kg) is recorded as 12%; in assay [2] (50 mg/Kg) it was 16%. For the same compound, the 50% inhibitory concentration (IC50) in assay [3] was 0.9 µM; at 5-lipoxygenase, 0.03 µM.

For `CSc1cccc(NC(=O)N(O)CC(C)C)c1` [Compound 58, 1-Hydroxy-1-(2-methylpropyl)-3-[3-(methylthio)phenyl]urea], in assay [1] (5 mg/Kg, 1 hour post dose), the “% Inhibition 1 hour” value was 1% and -24%. The “% Inhibition 2 hour” value in assay [1] (5 mg/Kg, 2 hour post dose) is -21% and -35%. In addition, the “% Inhibition 4 hour” value in assay [1] (5 mg/Kg, 4 hour post dose) was -43% and -63%. Moreover, the “% Inhibition 6 hour” value in assay [1] (5 mg/Kg) was 8% and -34%. In addition, the figures for the half-maximal inhibitory concentration (IC50) (in assay [3]; on 5-lipoxygenase) were 0.1 µM and 0.002 µM, respectively.
